Experiments:
[1] = molecular target: T1, Polyunsaturated fatty acid 5-lipoxygenase (Homo sapiens) (UniProt P09917); assay: Inhibition of human recombinant 5-LOX expressed in insect cells assessed residual activity using arachidonic acid at 42 uM as substrate preincubated for 5 mins followed by substrate addition measured after 20 mins in dark by ferric ion oxidation-xylenol orange method relative to control
T1 sequence (whole entry): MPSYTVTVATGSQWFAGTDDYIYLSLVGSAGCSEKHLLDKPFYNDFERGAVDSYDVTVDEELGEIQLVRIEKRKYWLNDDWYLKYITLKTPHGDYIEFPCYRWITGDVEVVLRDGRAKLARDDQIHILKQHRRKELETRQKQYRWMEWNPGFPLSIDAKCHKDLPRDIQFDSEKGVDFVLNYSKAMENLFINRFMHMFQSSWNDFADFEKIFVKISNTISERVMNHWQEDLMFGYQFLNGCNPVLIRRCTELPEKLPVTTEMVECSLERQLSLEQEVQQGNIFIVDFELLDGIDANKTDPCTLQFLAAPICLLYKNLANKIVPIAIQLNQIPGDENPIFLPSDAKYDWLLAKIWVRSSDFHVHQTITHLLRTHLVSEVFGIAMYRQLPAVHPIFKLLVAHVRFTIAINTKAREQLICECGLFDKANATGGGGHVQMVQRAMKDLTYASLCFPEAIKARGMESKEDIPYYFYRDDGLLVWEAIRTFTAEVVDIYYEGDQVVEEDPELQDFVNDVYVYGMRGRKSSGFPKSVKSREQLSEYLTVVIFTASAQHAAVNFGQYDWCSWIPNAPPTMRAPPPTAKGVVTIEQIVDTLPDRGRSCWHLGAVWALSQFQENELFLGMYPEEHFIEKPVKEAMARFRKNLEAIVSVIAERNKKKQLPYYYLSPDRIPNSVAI

[2] = molecular target: T2, Polyunsaturated fatty acid 5-lipoxygenase (Homo sapiens, UniProt P09917); assay: Inhibition of human recombinant 5-LOX expressed in insect cells assessed as decrease in production of 5-HPETE and 5-HETE using arachidonic acid as substrate preincubated for 5 mins followed by substrate addition measured after 20 mins in dark by ferric ion oxidation-xylenol orange method
T2 sequence (P09917 whole entry): T1 sequence (whole entry)

[3] = molecular target: T3, Prostaglandin G/H synthase 2 (Homo sapiens, UniProt P35354); assay: biochemical; type: cell-based, Sf21;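 note: recombinant enzyme produced in baculovirus-infected Sf21 cells, arachidonic acid substrate, PGE2 output quantified by LC-MS after 45 min, compounds preincubated 10 min beforehand, lower PGE2 means inhibition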
T3 sequence (P35354 whole entry): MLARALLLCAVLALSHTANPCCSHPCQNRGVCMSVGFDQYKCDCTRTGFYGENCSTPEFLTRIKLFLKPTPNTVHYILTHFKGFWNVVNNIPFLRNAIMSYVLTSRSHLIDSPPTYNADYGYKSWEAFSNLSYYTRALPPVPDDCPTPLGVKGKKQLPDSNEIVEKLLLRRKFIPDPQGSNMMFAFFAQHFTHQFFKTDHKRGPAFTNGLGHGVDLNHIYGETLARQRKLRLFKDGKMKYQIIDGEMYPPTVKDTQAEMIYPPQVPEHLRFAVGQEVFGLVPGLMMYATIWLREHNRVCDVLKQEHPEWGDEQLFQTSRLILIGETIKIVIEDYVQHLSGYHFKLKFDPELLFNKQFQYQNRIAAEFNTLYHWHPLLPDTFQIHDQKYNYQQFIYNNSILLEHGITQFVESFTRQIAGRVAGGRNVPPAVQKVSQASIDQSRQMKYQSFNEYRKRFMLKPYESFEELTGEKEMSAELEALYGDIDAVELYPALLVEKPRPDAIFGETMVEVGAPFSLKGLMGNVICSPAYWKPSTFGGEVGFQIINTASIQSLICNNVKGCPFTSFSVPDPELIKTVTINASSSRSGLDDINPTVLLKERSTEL
Description: Inhibition of human recombinant COX2 expressed in baculovirus infected sf21 cells assessed as decrease in PGE2 formation using arachidonic acid as substrate preincubated for 10 mins followed by substrate addition measured after 45 mins by LC-MS analysis

[4] = molecular target: T4, Polyunsaturated fatty acid lipoxygenase ALOX15B (Homo sapiens) (UniProt O15296); assay: Inhibition of human recombinant N-terminal His-tagged 15-LOX2 expressed in Escherichia coli assessed as residual activity at 42 uM using arachidonic acid as substrate preincubated for 5 mins followed by substrate addition measured after 20 mins in dark by ferric ion oxidation-xylenol orange assay relative to control
T4 sequence (whole entry): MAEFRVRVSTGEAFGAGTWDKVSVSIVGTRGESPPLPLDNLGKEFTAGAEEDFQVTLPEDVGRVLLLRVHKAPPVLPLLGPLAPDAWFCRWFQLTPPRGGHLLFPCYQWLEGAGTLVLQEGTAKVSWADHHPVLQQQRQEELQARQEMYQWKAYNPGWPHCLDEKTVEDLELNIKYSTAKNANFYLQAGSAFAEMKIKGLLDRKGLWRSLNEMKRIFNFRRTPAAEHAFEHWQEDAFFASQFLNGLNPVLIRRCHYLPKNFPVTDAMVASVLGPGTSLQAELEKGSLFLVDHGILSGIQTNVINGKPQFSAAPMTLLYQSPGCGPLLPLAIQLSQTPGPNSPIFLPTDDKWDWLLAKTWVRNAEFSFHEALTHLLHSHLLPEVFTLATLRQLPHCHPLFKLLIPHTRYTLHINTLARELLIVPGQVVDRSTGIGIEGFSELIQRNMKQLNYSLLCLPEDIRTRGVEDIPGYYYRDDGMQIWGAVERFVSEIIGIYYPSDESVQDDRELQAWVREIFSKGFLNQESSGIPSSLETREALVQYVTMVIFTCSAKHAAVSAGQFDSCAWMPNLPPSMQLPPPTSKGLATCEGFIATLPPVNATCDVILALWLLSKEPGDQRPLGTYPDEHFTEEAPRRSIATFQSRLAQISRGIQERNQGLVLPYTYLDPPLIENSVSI

[5] = molecular target: T5, Prostaglandin G/H synthase 1 (Ovis aries, UniProt P05979);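 note: recombinant ovine COX1 enzyme, PGE2 formed from arachidonic acid quantified by LC-MS, 10 min inhibitor preincubation then 45 min reaction, inhibition seen as reduced PGE2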
T5 sequence (P05979 whole entry): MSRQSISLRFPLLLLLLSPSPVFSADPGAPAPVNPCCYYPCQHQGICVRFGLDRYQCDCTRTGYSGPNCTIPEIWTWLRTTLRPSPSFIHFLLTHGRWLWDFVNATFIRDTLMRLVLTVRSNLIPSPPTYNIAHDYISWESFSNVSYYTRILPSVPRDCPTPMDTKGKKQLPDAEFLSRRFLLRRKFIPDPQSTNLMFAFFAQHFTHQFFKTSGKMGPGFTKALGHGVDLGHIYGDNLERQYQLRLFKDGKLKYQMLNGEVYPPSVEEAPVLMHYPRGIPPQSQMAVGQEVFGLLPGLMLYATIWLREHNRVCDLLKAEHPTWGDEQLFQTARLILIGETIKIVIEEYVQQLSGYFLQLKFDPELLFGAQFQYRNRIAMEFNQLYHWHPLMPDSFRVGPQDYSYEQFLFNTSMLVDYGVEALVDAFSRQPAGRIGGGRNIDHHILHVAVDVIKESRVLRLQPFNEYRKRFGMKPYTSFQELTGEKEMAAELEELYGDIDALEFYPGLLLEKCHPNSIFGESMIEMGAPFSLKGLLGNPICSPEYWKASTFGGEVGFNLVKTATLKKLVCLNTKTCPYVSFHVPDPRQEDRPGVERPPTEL
Description: Inhibition of ovine recombinant COX1 assessed as decrease in formation of PGE2 using arachidonic acid as substrate preincubated for 10 mins followed by substrate addition measured after 45 mins by LC-MS analysis

[6] = molecular target: T6, Polyunsaturated fatty acid lipoxygenase ALOX15B (Homo sapiens, UniProt O15296); assay: Inhibition of human recombinant N-terminal His-tagged 15-LOX2 expressed in Escherichia coli using arachidonic acid as substrate preincubated for 5 mins followed by substrate addition measured after 20 mins in dark by ferric ion oxidation-xylenol orange assay
T6 sequence (O15296 whole entry): T4 sequence (whole entry)

Row | SMILES | Activity [1] [%] | IC50 ([2]; read-out: IC50) [µM] | IC50 ([3]; sf21) | Activity [4] [%] | IC50 [5] | IC50 [6] | IC50 [2] | IC50 ([6]; read-out: IC50) [µM] | IC50 ([3]; read-out: IC50) [µM]
1 | CC1(C)CC[C@]2(C(=O)O)CC[C@]3(C)C(=CC[C@@H]4[C@@]5(C)C[C@H](O)[C@H](O)[C@@](C)(CO)[C@@H]5CC[C@]43C)[C@@H]2C1 | 71.9 | > 40 | – | 100 | Not Active | Not Active | – | – | > 40
2 | CC1(C)[C@@H](O)CC[C@]2(C)[C@H]3C(=O)C=C4[C@@H]5C[C@@](C)(C(=O)O)CC[C@]5(C)CC[C@@]4(C)[C@]3(C)CC[C@@H]12 [ENOXOLONE] | 28.3 | 24.8 | – | 98.6 | Not Active | – | – | > 40 | > 40
3 | CC1(C)CC[C@]2(C)CC[C@]3(C)C(=CC(=O)[C@@H]4[C@@]5(C)CC[C@H](O)C(C)(C)[C@@H]5CC[C@]43C)[C@@H]2C1 | 70.4 | > 40 | – | 100 | Not Active | Not Active | – | – | > 40
4 | CC1(C)[C@@H](O)CC[C@]2(C)[C@H]3C(=O)C=C4[C@@H]5C[C@@](C)(CO)CC[C@]5(C)CC[C@@]4(C)[C@]3(C)CC[C@@H]12 | 25.2 | 25.7 | – | 100 | Not Active | Not Active | – | – | > 40
5 | CC1(C)[C@@H](O)CC[C@]2(C)[C@H]3CC=C4[C@@H]5C[C@@](C)(CO)CC[C@]5(C)CC[C@@]4(C)[C@]3(C)CC[C@@H]12 | 34.8 | 31.8 | – | 100 | Not Active | Not Active | – | – | > 40
6 | CC1(C)CC[C@]2(C(=O)O)CC[C@]3(C)C(=CC[C@@H]4[C@@]5(C)CC[C@H](O)[C@@](C)(C(=O)O)[C@@H]5CC[C@]43C)[C@@H]2C1 | 86 | > 40 | Not Active | 100 | Not Active | Not Active | – | – | –

The next lines start with results.

Row | Activity [1] [%] | IC50 ([2]; read-out: IC50) [µM] | IC50 ([3]; sf21) | Activity [4] [%] | IC50 [5] | IC50 [6] | IC50 [2] | IC50 ([6]; read-out: IC50) [µM] | SMILES | IC50 ([3]; read-out: IC50) [µM]
7 | 55.5 | > 40 | Not Active | 100 | Not Active | Not Active | – | – | C[C@H]1[C@H](C)CC[C@]2(C)CC[C@]3(C)C(=CC[C@@H]4[C@@]5(C)CC[C@H](O)C(C)(C)[C@@H]5CC[C@]43C)[C@H]12 | –
8 | 100 | – | – | 100 | Not Active | Not Active | Not Active | – | C[C@H]1[C@H](C)CC[C@]2(C)CC[C@]3(C)C(=CC[C@@H]4[C@@]5(C)CCC(=O)C(C)(C)[C@@H]5CC[C@]43C)[C@H]12 | > 40
9 | 100 | – | Not Active | 100 | Not Active | Not Active | Not Active | – | CC1(C)CC[C@]2(C(=O)O)CC[C@]3(C)C(=CC[C@@H]4[C@@]5(C)CC[C@H](O)[C@@](C)(C=O)[C@@H]5CC[C@]43C)[C@@H]2C1 | –
10 | 60.7 | > 40 | Not Active | 100 | Not Active | Not Active | – | – | CC1(C)CC[C@]2(CO)CC[C@]3(C)C(=CC[C@@H]4[C@@]5(C)CC[C@H](O)C(C)(C)[C@@H]5CC[C@]43C)[C@@H]2C1 [ERYTHRODIOL] | –
11 | 73.3 | > 40 | Not Active | 97.2 | Not Active | – | – | > 40 | CC1(C)CC[C@]2(C)CC[C@]3(C)C(=CC[C@@H]4[C@@]5(C)CC[C@H](O)C(C)(C)[C@@H]5CC[C@]43C)[C@@H]2C1 [beta-AMYRIN] | –
12 | 59.8 | > 40 | Not Active | 64.7 | Not Active | – | – | > 40 | CC1(C)CC[C@]2(C(=O)O)CC[C@]3(C)C(=CC[C@@H]4[C@@]5(C)CC[C@H](O)[C@@](C)(CO)[C@@H]5CC[C@]43C)[C@@H]2C1 [HEDERAGENIN] | –
